# Test results reported in US20020115723A1, “Cysteine derivatives” (AJINOMOTO CO., INC., priority 1998, published 2002).
# What was measured:
# NF-κB = assay: Test on the function of inhibiting the activation of NF-κB induced by ultraviolet rays (gel shift assay); assay type: cell-based, human; details: for Inhibition ratio (%) of NF-κB activation: human epidermal cells, UVB 50 mJ/cm^2
# Method: Test on the Function of Inhibiting the Activation of NF-κB Induced by Ultraviolet Rays.
# After 18 hours had elapsed, the culture medium was substituted by a phenol red-free medium. The cells were exposed to ultraviolet rays (UVB: 50 mJ/cm^2) from an ultraviolet irradiator “Dermaray M-DMR-80” (ex Toshiba Medical Supply Co., Ltd.). After 4 to 5 hours had elapsed, the cells were collected, and the nucleoprotein was extracted therefrom in a manner known per se in the art. From the resulting nucleoprotein, the activated NF-κB was detected in accordance with the gel shift assay. The amount of the NF-κB was determined by measuring the radioactive value of the NF-κB band with the use of a bioimaging analyzer “BAS 2000” (ex Fuji Film Co., Ltd.).
# The inhibition ratio of the activation of the NF-κB of the test compounds was calculated from the below-described formula (1).
# Inhibition ratio of NF-κB activation (%)={1−(A1-A3)/(A2-A3)}×100 (1)
# A1: radioactive value of the NF-κB upon addition of a test compound
# A2: radioactive value of NF-κB when a test compound is not added
# A3: radioactive value of NF-κB when a test compound is not added and is not exposed to ultraviolet rays.
# AP-1 = assay: Test on the function of inhibiting the AP-1 activation induced by ultraviolet rays (gel shift assay); assay type: cell-based, human; details: single compound
# Method: Test on the Function of Inhibiting the AP-1 Activation Induced by Ultraviolet Rays.
# In a similar manner to Test Example 1, a nucleoprotein was obtained. Then, the activated AP-1 was detected by the gel shift assay. The radioactive value of the AP-1 band was measured as in Test Example 1, whereby the amount of the AP-1 was determined. The AP-1 activation inhibiting ratio of the test compounds was calculated by the below-described equation (2). The results of the test compounds according to the present invention are shown below in Table 4a, while those of the comparative compounds are shown below in Table 4b.
# AP-1 activation inhibiting ratio (%)={1−(B1-B3)/(B2-B3)}×100 (2)
# B1: radioactive value of the AP-1 band upon addition of a test compound.
# B2: radioactive value of the AP-1 band when a test compound is not added.
# B3: radioactive value of the AP-1 band when a test compound is not added and is not exposed to ultraviolet rays.
# Hairless mice (SKH-1) = assay: Test on inhibiting function of wrinkles formation induced by ultraviolet rays (No. 2), Components (A) and (B) in combination; assay type: in vivo, mouse; parameters: scale not given here; details: 5% alone
# Method: Hairless mice (SKH-1, female, 5-6 weeks old) were exposed to ultraviolet rays (UVB) three times/week (Monday, Wednesday and Friday) for 5 weeks, each at 50 to 100 mJ/cm^2 by using the above-described “Dermaray M-DMR-80” (ex Toshiba Medical Supply Co., Ltd.). The test compound (N,N′-diacetyl-L-cystine dimethyl ester) was dissolved in a mixed solvent of propylene glycol, ethanol and water, and was applied to the back portion of each of the mice in an amount of 100 μl, 30 to 60 minutes before exposure to ultraviolet rays, just after the completion of the exposure, and on the days free from exposure to ultraviolet rays (Sunday, Tuesday, Thursday and Saturday). From two weeks after the exposure had started, the wrinkles formed on the back portion of each mouse were evaluated once a week based on the below-described standards, and they were indicated as scores. In addition, the function of the inventive compound for inhibiting wrinkle formation induced by ultraviolet rays was judged based on the below-described judging standards.
# Test on Inhibiting Function of Wrinkles Formation Induced by Ultraviolet Rays (No. 2)
# Function of suppressing ultraviolet ray-induced wrinkles formation by the synergistic effects when Components (A) and (B) were used in combination, was judged in a similar manner to Test Example 2. Fifteen to twenty mice were divided into 4 groups, that is, a 1st group to which a mixed solvent of propylene glycol, ethanol and water was to be applied, a 2nd group to which a solution of only Component (A) dissolved in the above-described solvent was to be applied, a 3rd group to which a solution of only Component (B) dissolved in the above-described solvent was to be applied, and a 4th group to which a solution of both Components (A) and (B) dissolved in the above-described solvent was to be applied. An average score of each group was determined.
smiles,measurement,setting,value
CCCCCCCCCCCC(=O)N[C@@H](CSSC[C@H](N)C(=O)O)C(=O)O [N-lauroyl-L-cystine],Inhibition ratio (%) of NF-κB activation,NF-κB; addition concentration 0.1 mM,14%
same,Inhibition ratio (%) of NF-κB activation,NF-κB; addition concentration 0.5 mM,86%
CC(=O)N[C@@H](CSSC[C@H](N)C(=O)O)C(=O)OC(C)C [N-acetyl-L-cystine isopropylester],Inhibition ratio (%) of NF-κB activation,NF-κB; addition concentration 0.01 mM,21%
same,Inhibition ratio (%) of NF-κB activation,NF-κB; addition concentration 0.1 mM,82%
CC1(C)[C@@H](O)CC[C@]2(C)[C@H]3C(=O)C=C4[C@@H]5C[C@@](C)(C(=O)O)CC[C@]5(C)CC[C@@]4(C)[C@]3(C)CC[C@@H]12 [glycyrrhetinic acid],AP-1 activation Inhibiting ratio (%),AP-1; 10 μM,2%
same,AP-1 activation Inhibiting ratio (%),AP-1; 100 μM,−104%
"CCOC(=O)[C@H](CSSC[C@H](NC(C)=O)C(=O)OCC)NC(C)=O [N,N′-diacetyl-L-cystine diethyl ester]",Inhibition ratio (%) of NF-κB activation,NF-κB; addition concentration 0.01 mM,37%
same,Inhibition ratio (%) of NF-κB activation,NF-κB; addition concentration 0.1 mM,107%
"COC(=O)[C@H](CCSSCC[C@H](NC(C)=O)C(=O)OC)NC(C)=O (racemic) [N,N′-diacetyl -DL-homocystine dimethyl ester]",Inhibition ratio (%) of NF-κB activation,NF-κB; addition concentration 0.01 mM,10%
same,Inhibition ratio (%) of NF-κB activation,NF-κB; addition concentration 0.1 mM,46%
Cc1c(C)c2c(c(C)c1O)CCC(C)(CCCC(C)CCCC(C)CCCC(C)C)O2 (racemic) [dl-α-tocopherol],AP-1 activation Inhibiting ratio (%),AP-1; 10 μM,5%
same,AP-1 activation Inhibiting ratio (%),AP-1; 100 μM,−1%
same,Wrinkle score (group average),Hairless mice (SKH-1); 2nd week,2.0
same,Wrinkle score (group average),Hairless mice (SKH-1); 3rd week,3.0
same,Wrinkle score (group average),Hairless mice (SKH-1); 4th week,2.5
same,Wrinkle score (group average),Hairless mice (SKH-1); 5th week,3.5
"CCCCC(=O)N[C@@H](CSSC[C@H](NC(=O)CCCC)C(N)=O)C(N)=O [N,N′-di(n-valeryl)-L-cystine diamide]",Inhibition ratio (%) of NF-κB activation,NF-κB; addition concentration 0.01 mM,8%
same,Inhibition ratio (%) of NF-κB activation,NF-κB; addition concentration 0.1 mM,53%
"CCCCCCCC(=O)N[C@@H](CSSC[C@H](NC(=O)CCCCCCC)C(=O)OC)C(=O)OC [N,N′-di(n-octanoyl)-L-cystine dimethyl ester]",Inhibition ratio (%) of NF-κB activation,NF-κB; addition concentration 0.01 mM,33%
same,Inhibition ratio (%) of NF-κB activation,NF-κB; addition concentration 0.1 mM,91%
"CCCC(=O)N[C@@H](CSSC[C@H](NC(=O)CCC)C(N)=O)C(N)=O [N,N′-di(n-butyryl)-L-cystine diamide]",Inhibition ratio (%) of NF-κB activation,NF-κB; addition concentration 0.01 mM,45%
same,Inhibition ratio (%) of NF-κB activation,NF-κB; addition concentration 0.1 mM,11%
CCCCCCCCCCCC(=O)N[C@@H](CSSC[C@H](N)C(=O)O)C(=O)OC [N-lauroyl-L-cystine methyl ester],Inhibition ratio (%) of NF-κB activation,NF-κB; addition concentration 0.01 mM,36%
same,Inhibition ratio (%) of NF-κB activation,NF-κB; addition concentration 0.1 mM,43%
CCOC(=O)[C@@H](N)CSSC[C@H](N)C(=O)OCC [L-cystine diethyl ester],Inhibition ratio (%) of NF-κB activation,NF-κB; addition concentration 0.1 mM,50%
same,Inhibition ratio (%) of NF-κB activation,NF-κB; addition concentration 0.5 mM,>100%
"CC(=O)N[C@@H](CSSC[C@H](NC(C)=O)C(=O)OC(C)C)C(=O)OC(C)C [N,N′-diacetyl-L-cystine diisopropyl ester]",Inhibition ratio (%) of NF-κB activation,NF-κB; addition concentration 0.01 mM,19%
same,Inhibition ratio (%) of NF-κB activation,NF-κB; addition concentration 0.1 mM,48%
COC(=O)[C@H](CSSC[C@H](N)C(=O)O)NC(C)=O [N-acetyl-L-cystine methyl ester],Inhibition ratio (%) of NF-κB activation,NF-κB; addition concentration 0.01 mM,28%
same,Inhibition ratio (%) of NF-κB activation,NF-κB; addition concentration 0.1 mM,95%
"CCCCCCC(=O)N[C@@H](CSSC[C@H](NC(=O)CCCCCC)C(=O)OC)C(=O)OC [N,N′-di(n-heptanoyl)-L-cystine dimethyl ester]",Inhibition ratio (%) of NF-κB activation,NF-κB; addition concentration 0.01 mM,25%
same,Inhibition ratio (%) of NF-κB activation,NF-κB; addition concentration 0.1 mM,103%
"CCCCCC(=O)N[C@@H](CSSC[C@H](NC(=O)CCCCC)C(=O)OC)C(=O)OC [N,N′-di(n-hexanoyl)-L-cystine dimethyl ester]",Inhibition ratio (%) of NF-κB activation,NF-κB; addition concentration 0.01 mM,43%
same,Inhibition ratio (%) of NF-κB activation,NF-κB; addition concentration 0.1 mM,77%
CCOC(=O)[C@H](CSSC[C@H](N)C(=O)O)NC(C)=O [N-acetyl-L-cystine ethyl ester],Inhibition ratio (%) of NF-κB activation,NF-κB; addition concentration 0.01 mM,31%
same,Inhibition ratio (%) of NF-κB activation,NF-κB; addition concentration 0.1 mM,74%
"CCCCC(=O)N[C@@H](CSSC[C@H](NC(=O)CCCC)C(=O)OC)C(=O)OC [N,N′-di(n-valeryl)-L-cystine dimethyl ester]",Inhibition ratio (%) of NF-κB activation,NF-κB; addition concentration 0.01 mM,18%
same,Inhibition ratio (%) of NF-κB activation,NF-κB; addition concentration 0.1 mM,64%
COc1ccc(C(=O)CC(=O)c2ccc(C(C)(C)C)cc2)cc1 [4-tert-butyl-4′-methoxybenzoylmethane],AP-1 activation Inhibiting ratio (%),AP-1; 1 μM,−14%
same,AP-1 activation Inhibiting ratio (%),AP-1; 10 μM,17%
"CCCCCCCCCCCC(=O)N[C@@H](CSSC[C@H](NC(=O)CCCCCCCCCCC)C(=O)OC)C(=O)OC [N,N′-dilauroyl-L-cystine dimethyl ester]",Inhibition ratio (%) of NF-κB activation,NF-κB; addition concentration 0.01 mM,52%
same,Inhibition ratio (%) of NF-κB activation,NF-κB; addition concentration 0.1 mM,59%
"CCCC(=O)N[C@@H](CSSC[C@H](NC(=O)CCC)C(=O)OC)C(=O)OC [N,N′-di(n-butyryl)-L-cystine dimethyl ester]",Inhibition ratio (%) of NF-κB activation,NF-κB; addition concentration 0.01 mM,52%
same,Inhibition ratio (%) of NF-κB activation,NF-κB; addition concentration 0.1 mM,79%
"COC(=O)[C@H](CSC(C)=O)NC(C)=O [N,S-diacetyl-L-cystine methyl ester]",Inhibition ratio (%) of NF-κB activation,NF-κB; addition concentration 0.01 mM,20%
same,Inhibition ratio (%) of NF-κB activation,NF-κB; addition concentration 0.1 mM,31%
"S=C(S)N1CCCC1 [pyrrolidine dithiocarbamate, reference compound]",Inhibition ratio (%) of NF-κB activation,NF-κB; addition concentration 0.005 mM,−2%
same,Inhibition ratio (%) of NF-κB activation,NF-κB; addition concentration 0.01 mM,9%
same,NF-κB activation inhibiting function (in words),NF-κB; summary of Tables 2a and 2b,did not exhibit the NF-κKB activation inhibiting function
CC1(C)[C@@H](O[C@H]2O[C@H](C(=O)O)[C@@H](O)[C@H](O)[C@H]2O[C@@H]2O[C@H](C(=O)O)[C@@H](O)[C@H](O)[C@H]2O)CC[C@]2(C)[C@H]3C(=O)C=C4[C@@H]5C[C@@](C)(C(=O)O)CC[C@]5(C)CC[C@@]4(C)[C@]3(C)CC[C@@H]12 [glycyrrhizic acid],AP-1 activation Inhibiting ratio (%),AP-1; 0.1 mM,3%
same,AP-1 activation Inhibiting ratio (%),AP-1; 1 mM,−70%
"CCCCCCCCCC(=O)N[C@@H](CSSC[C@H](NC(=O)CCCCCCCCC)C(=O)OC)C(=O)OC [N,N′-di(n-decanoyl)-L-cystine dimethyl ester]",Inhibition ratio (%) of NF-κB activation,NF-κB; addition concentration 0.01 mM,56%
same,Inhibition ratio (%) of NF-κB activation,NF-κB; addition concentration 0.1 mM,68%
"CCC(=O)N[C@@H](CSSC[C@H](NC(=O)CC)C(=O)OC)C(=O)OC [N,N′-di(n-propionyl)-L-cystine dimethyl ester]",Inhibition ratio (%) of NF-κB activation,NF-κB; addition concentration 0.01 mM,17%
same,Inhibition ratio (%) of NF-κB activation,NF-κB; addition concentration 0.1 mM,54%
"CC(=O)N[C@@H](CSSC[C@H](NC(C)=O)C(=O)O)C(=O)O [N,N′ -diacetyl-L-cystine, N,N′-diacetyl-L-cystine, reference compound]",Inhibition ratio (%) of NF-κB activation,NF-κB; addition concentration 10 mM,48%
same,Inhibition ratio (%) of NF-κB activation,NF-κB; addition concentration 30 mM,67%
O=C(O)c1ccccc1O [Salicylic acid],Wrinkle score (group average),Hairless mice (SKH-1); 2nd week,2.0
same,Wrinkle score (group average),Hairless mice (SKH-1); 3rd week,1.5
same,Wrinkle score (group average),Hairless mice (SKH-1); 4th week,1.5
same,Wrinkle score (group average),Hairless mice (SKH-1); 5th week,2.5
